From patent publication US20100298141A1, “SUBSTITUTED PYRIDINE N-OXIDE HERBICIDES” (E. I. DU PONT DE NEMOURS AND COMPANY, priority 2007, published 2010)

Columns and labels:
morningglory [1] = assay: Test A pre-/postemergence greenhouse test; type: in vivo, Ipomoea spp.; details: for Morningglory plant response rating: 0 to 100 scale; for Plant response rating, Morningglory: 0 to 100 scale where 0 is no effect and 100 is complete control
Outline: (§1)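 Each test compound, dissolved in a non-phytotoxic solvent mixture with surfactant, was sprayed directly onto seeded soil (loam/sand blend) and, at the same moment, onto seedlings carrying one to two leaves. Around ten greenhouse days later, plants were rated visually for injury relative to untreated controls.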

redroot pigweed = assay: Test A pre-/postemergence greenhouse test; type: in vivo, Amaranthus retroflexus; details: for Pigweed plant response rating: 0 to 100 scale; for Plant response rating, Pigweed: 0 to 100 scale where 0 is no effect and 100 is complete control
Outline: as §1

corn [2] = assay: Test A pre-/postemergence greenhouse test; type: in vivo, Zea mays; details: for Corn plant response rating: 0 to 100 scale; for Plant response rating, Corn: 0 to 100 scale where 0 is no effect and 100 is complete control
Outline: as §1

Italian ryegrass = assay: Test C pre-/postemergence test; type: in vivo, Lolium multiflorum; details: for Plant response rating (0 to 100), Ryegrass, Italian: 250 g ai/ha
Outline: (§2)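 Test chemicals were formulated with surfactant in a non-phytotoxic solvent and sprayed both on freshly planted seeds (preemergence) and on 1- to 4-leaf plants of 2–18 cm (postemergence). Flooded-paddy pots received compound directly into 3 cm of standing water, maintained for the test.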

wheat = assay: Test C pre-/postemergence test; type: in vivo, Triticum aestivum; details: for Wheat plant response rating: preemergence, scale 0 (no effect) to 100 (complete control); for Plant response rating (0 to 100), Wheat: Preemergence, 250 g ai/ha
Outline: as §2

wild oat = assay: Test C pre-/postemergence test; type: in vivo, Avena fatua; details: for Plant response rating (0 to 100), Oat, Wild: 250 g ai/ha
Outline: as §2

bermudagrass = assay: Test C pre-/postemergence test; type: in vivo, Cynodon dactylon; details: for Plant response rating (0 to 100), Bermudagrass: 250 g ai/ha
Outline: as §2

cocklebur = assay: Test C pre-/postemergence test; type: in vivo, Xanthium strumarium; details: for Plant response rating (0 to 100), Cocklebur: 250 g ai/ha
Outline: as §2

corn [3] = assay: Test C pre-/postemergence test; type: in vivo, Zea mays; details: for Plant response rating (0 to 100), Corn: 250 g ai/ha
Outline: as §2

giant foxtail = assay: Test C pre-/postemergence test; type: in vivo, Setaria faberii; details: for Plant response rating (0 to 100), Foxtail, Giant: 250 g ai/ha
Outline: as §2

johnsongrass = assay: Test C pre-/postemergence test; type: in vivo, Sorghum halepense; details: for Plant response rating (0 to 100), Johnsongrass: 250 g ai/ha
Outline: as §2

kochia = assay: Test C pre-/postemergence test; type: in vivo, Kochia scoparia; details: for Plant response rating (0 to 100), Kochia: 250 g ai/ha
Outline: as §2

morningglory [4] = assay: Test C pre-/postemergence test; type: in vivo, Ipomoea coccinea; details: for Plant response rating (0 to 100), Morningglory: 250 g ai/ha
Outline: as §2

eastern black nightshade = assay: Test C pre-/postemergence test; type: in vivo, Solanum ptycanthum; details: for Plant response rating (0 to 100), Nightshade: 250 g ai/ha
Outline: as §2

yellow nutsedge = assay: Test C pre-/postemergence test; type: in vivo, Cyperus esculentus; details: for Plant response rating (0 to 100), Nutsedge, Yellow: 250 g ai/ha
Outline: as §2

[5] = tested on: common (oilseed) sunflower; assay: Test C pre-/postemergence test; type: in vivo, Helianthus annuus; details: for Sunflower plant response rating: preemergence, scale 0 (no effect) to 100 (complete control); for Plant response rating (0 to 100), Sunflower: Preemergence, 250 g ai/ha
Outline: as §2

rice = assay: Test C flooded paddy test; type: in vivo, Oryza sativa; details: Flood
Outline: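 Flooded 3 cm over soil; compound into paddy water; depth kept constant. Greenhouse 13–15 d.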

[6] = Postemergence, 125 g ai/ha, 0 is no effect, 100 is complete control
[7] = Postemergence, 500 g ai/ha, 0 is no effect, 100 is complete control
[8] = Preemergence, 125 g ai/ha, 0 no effect, 100 complete control
[9] = 31 g ai/ha, Preemergence, scale 0 to 100
[10] = 62 g ai/ha, preemergence, scale 0 (no effect) to 100 (complete control)
[11] = preemergence, 125 g ai/ha, scale 0 (no effect) to 100 (complete control)
[12] = 31 g ai/ha, scale 0 to 100 (0 no effect, 100 complete control)
[13] = 62 g ai/ha, scale 0 to 100, 0 no effect, 100 complete control, 13 to 15 days
[14] = 125 g ai/ha, scale 0 to 100, 0 no effect, 100 complete control, 13 to 15 days
[15] = 250 g ai/ha, scale 0 to 100 (0 no effect, 100 complete control)

Cc1cc[n+]([O-])c(S(=O)(=O)C(C)c2c(C(F)(F)F)nn(C)c2Cl)c1 (racemic) [Compound 14]
0: Pigweed plant response rating (redroot pigweed; [6]) | Corn plant response rating (corn [2]; [6]) | Corn plant response rating (corn [2]; [8]) | Oat, Wild plant response rating (wild oat; [9]) | Oat, Wild plant response rating (wild oat; [10]) | Cocklebur plant response rating (cocklebur; [9]) | Cocklebur plant response rating (cocklebur; [10]) | Corn plant response rating (corn [3]; [9]) | Kochia plant response rating (kochia; [9]) | Kochia plant response rating (kochia; [10]) | Plant response rating, Rice (rice; [12]) | Plant response rating, Rice (rice; [13])
10: Morningglory plant response rating (morningglory [1]; [8]) | Pigweed plant response rating (redroot pigweed; [7]) | Oat, Wild plant response rating (wild oat; [11]) | Plant response rating (0 to 100), Cocklebur (cocklebur; Preemergence) | Cocklebur plant response rating (cocklebur; [11])
85: Foxtail, Giant plant response rating (giant foxtail; [9]) | Foxtail, Giant plant response rating (giant foxtail; [10]) | Sunflower plant response rating ([5]; 62 g ai/ha)
70: Plant response rating, Corn (corn [2]; Preemergence, 500 g ai/ha) | Nutsedge, Yellow plant response rating (yellow nutsedge; [10]) | Plant response rating, Rice (rice; [15])
98: Morningglory plant response rating (morningglory [4]; [10]) | Nutsedge, Yellow plant response rating (yellow nutsedge; [11]) | Sunflower plant response rating ([5]; 125 g ai/ha)
40: Nutsedge, Yellow plant response rating (yellow nutsedge; [9])
100: Plant response rating, Morningglory (morningglory [1]; Preemergence, 500 g ai/ha) | Pigweed plant response rating (redroot pigweed; [8]) | Plant response rating, Pigweed (redroot pigweed; Preemergence, 500 g ai/ha) | Plant response rating (0 to 100), Ryegrass, Italian (Italian ryegrass; Preemergence) | Ryegrass, Italian plant response rating (Italian ryegrass; [11]) | Bermudagrass plant response rating (bermudagrass; [10]) | Plant response rating (0 to 100), Bermudagrass (bermudagrass; Preemergence) | Bermudagrass plant response rating (bermudagrass; [11]) | Plant response rating (0 to 100), Foxtail, Giant (giant foxtail; Preemergence) | Foxtail, Giant plant response rating (giant foxtail; [11]) | Plant response rating (0 to 100), Johnsongrass (johnsongrass; Preemergence) | Johnsongrass plant response rating (johnsongrass; [11]) | Plant response rating (0 to 100), Kochia (kochia; Preemergence) | Kochia plant response rating (kochia; [11]) | Plant response rating (0 to 100), Morningglory (morningglory [4]; Preemergence) | Morningglory plant response rating (morningglory [4]; [11]) | Nightshade plant response rating (eastern black nightshade; [10]) | Plant response rating (0 to 100), Nightshade (eastern black nightshade; Preemergence) | Nightshade plant response rating (eastern black nightshade; [11]) | Plant response rating (0 to 100), Nutsedge, Yellow (yellow nutsedge; Preemergence) | Plant response rating (0 to 100), Sunflower [5]
5: Morningglory plant response rating (morningglory [4]; [9])
20: Ryegrass, Italian plant response rating (Italian ryegrass; [9]) | Wheat plant response rating (wheat; 62 g ai/ha) | Corn plant response rating (corn [3]; [10])
45: Johnsongrass plant response rating (johnsongrass; [9])
80: Plant response rating (0 to 100), Wheat (wheat) | Bermudagrass plant response rating (bermudagrass; [9]) | Plant response rating (0 to 100), Corn (corn [3]; Preemergence) | Nightshade plant response rating (eastern black nightshade; [9])
55: Ryegrass, Italian plant response rating (Italian ryegrass; [10])
60: Corn plant response rating (corn [3]; [11]) | Johnsongrass plant response rating (johnsongrass; [10]) | Plant response rating, Rice (rice; [14])
30: Morningglory plant response rating (morningglory [1]; [6])
50: Morningglory plant response rating (morningglory [1]; [7]) | Corn plant response rating (corn [2]; [7]) | Wheat plant response rating (wheat; 125 g ai/ha)
75: Plant response rating (0 to 100), Oat, Wild (wild oat; Preemergence)

Cn1nc(C(F)(F)F)c(C[S+]([O-])c2ccc(Br)c[n+]2[O-])c1OC(F)F (racemic) [Compound 16]
70: Pigweed plant response rating (redroot pigweed; [7]) | Oat, Wild plant response rating (wild oat; [10])
50: Corn plant response rating (corn [2]; [6]) | Ryegrass, Italian plant response rating (Italian ryegrass; [10]) | Sunflower plant response rating ([5]; 125 g ai/ha)
40: Corn plant response rating (corn [3]; [9])
95: Corn plant response rating (corn [3]; [10]) | Morningglory plant response rating (morningglory [4]; [11])
90: Plant response rating (0 to 100), Wheat (wheat)
60: Morningglory plant response rating (morningglory [1]; [7]) | Corn plant response rating (corn [2]; [7]) | Plant response rating, Corn (corn [2]; Preemergence, 500 g ai/ha) | Wheat plant response rating (wheat; 125 g ai/ha) | Nutsedge, Yellow plant response rating (yellow nutsedge; [9])
20: Morningglory plant response rating (morningglory [1]; [6]) | Pigweed plant response rating (redroot pigweed; [6]) | Kochia plant response rating (kochia; [9])
30: Morningglory plant response rating (morningglory [1]; [8]) | Ryegrass, Italian plant response rating (Italian ryegrass; [9]) | Wheat plant response rating (wheat; 62 g ai/ha) | Sunflower plant response rating ([5]; 62 g ai/ha)
85: Nutsedge, Yellow plant response rating (yellow nutsedge; [11]) | Plant response rating (0 to 100), Sunflower [5]
55: Ryegrass, Italian plant response rating (Italian ryegrass; [11])
80: Plant response rating, Morningglory (morningglory [1]; Preemergence, 500 g ai/ha) | Plant response rating (0 to 100), Oat, Wild (wild oat; Preemergence) | Bermudagrass plant response rating (bermudagrass; [9]) | Foxtail, Giant plant response rating (giant foxtail; [9]) | Nutsedge, Yellow plant response rating (yellow nutsedge; [10])
10: Morningglory plant response rating (morningglory [4]; [10])
100: Pigweed plant response rating (redroot pigweed; [8]) | Plant response rating, Pigweed (redroot pigweed; Preemergence, 500 g ai/ha) | Plant response rating (0 to 100), Ryegrass, Italian (Italian ryegrass; Preemergence) | Plant response rating (0 to 100), Bermudagrass (bermudagrass; Preemergence) | Bermudagrass plant response rating (bermudagrass; [11]) | Plant response rating (0 to 100), Corn (corn [3]; Preemergence) | Foxtail, Giant plant response rating (giant foxtail; [10]) | Plant response rating (0 to 100), Foxtail, Giant (giant foxtail; Preemergence) | Johnsongrass plant response rating (johnsongrass; [9]) | Johnsongrass plant response rating (johnsongrass; [10]) | Plant response rating (0 to 100), Johnsongrass (johnsongrass; Preemergence) | Johnsongrass plant response rating (johnsongrass; [11]) | Kochia plant response rating (kochia; [10]) | Plant response rating (0 to 100), Kochia (kochia; Preemergence) | Kochia plant response rating (kochia; [11]) | Plant response rating (0 to 100), Morningglory (morningglory [4]; Preemergence) | Nightshade plant response rating (eastern black nightshade; [9]) | Nightshade plant response rating (eastern black nightshade; [10]) | Plant response rating (0 to 100), Nightshade (eastern black nightshade; Preemergence) | Nightshade plant response rating (eastern black nightshade; [11]) | Plant response rating (0 to 100), Nutsedge, Yellow (yellow nutsedge; Preemergence)
0: Corn plant response rating (corn [2]; [8]) | Oat, Wild plant response rating (wild oat; [9]) | Cocklebur plant response rating (cocklebur; [9]) | Cocklebur plant response rating (cocklebur; [10]) | Plant response rating (0 to 100), Cocklebur (cocklebur; Preemergence) | Cocklebur plant response rating (cocklebur; [11]) | Morningglory plant response rating (morningglory [4]; [9]) | Plant response rating, Rice (rice; [12]) | Plant response rating, Rice (rice; [13]) | Plant response rating, Rice (rice; [14]) | Plant response rating, Rice (rice; [15])
75: Oat, Wild plant response rating (wild oat; [11])
98: Bermudagrass plant response rating (bermudagrass; [10]) | Corn plant response rating (corn [3]; [11])
